{
  "source": "paper PMC10916291",
  "about": "“Cocrystals of a coumarin derivative: an efficient approach towards anti-leishmanial cocrystals against MIL-resistant Leishmania tropica” (IUCrJ, 2024)",
  "key": {"in vitro": {"assay": "in vitro", "conditions": "mouse", "description": "(§1) In vitro biological activities of CU, coformers and synthesized cocrystals 2–6 were evaluated for their MIL-resistant L. tropica promastigotes and cytotoxicity against […]. Detailed methodologies of the biological assays are provided in the supporting information.\n(§2) 2. Cytotoxicity assay Protocol:\n(§3) Cy totoxicity o f compounds was evaluated in 96-well flat-bo ttomed micro plates by using the standard MTT (3-[4, 5-dimethylthiazole-2-y l]-2 , 5-d iph eny l-tetrazolium bromide) colorimetric assay. For this purpose, 3T3 (mouse fibroblast) cells were cultured in Dulb ecco’s Modified Eagle Medium, supplemented with 5% of fetal bovine serum (FBS), 100 IU/mL of penicillin and 100 µg / m L of strep tomy cin in 75 cm2 flasks, and kept in 5% CO2 incubator at 37° C.\n(§4) Exponentially growing cells were harvested, counted with haemocytometer, and diluted with a particular medium. Cell culture with the concentration of 5x10^4 cells/mL was p rep ared and introduced (100 µL/well) into 96-well plates. After overnight incubation, medium was removed and 200 µL of fresh medium was added with different concentrations of compounds (1-30 µM).\n(§5) After 48 hrs. 200 µL MTT (0.5 mg/mL) was added to each well, and incubated further for 4 hrs.\n(§6) Subsequently, 100 µL of DMSO was added to each well. The extent of MTT reduction to formazan within cells was calculated by measuring the absorbance at 540 nm, using a micro-plate reader (Spectra Max p lus, Molecular Devices, USA). The cy totoxicity was recorded as a concentration causing 50% growth inhibition (IC50) of 3T3 cells. The percent inhibition was calculated by using the fo llo wing formula:\n(§7) % Inhibition = 100-((mean of O.D of test compound – mean of O.D of negative control)/ (mean of O.D. of positive control – mean of O.D of negative control)*100).\n(§8) The results (% inhibition) were processed by using Soft- Max Pro software (Molecular Devices, […]"}, "[1]": {"system": "3T3 (normal mouse fibroblast) cell line", "assay": "in vitro", "description": "as §1, §2, §3, §4, §5, §6, §7, §8"}, "[2]": {"assay": "Thermal analysis (DSC and TGA)", "type": "physicochemical", "conditions": "heating rate 10°C min^-1, dry N2", "description": "DSC and TGA were performed on a LINSEIS STA PT1600 with heating rate of 10°C min^−1. About 20–25 mg of samples were crimped in a ceramic pan and scanned from 30 to 600°C under dry N2 gas purging. The Linseis TA software (version 1.0; Linseis Messgeraete GmbH) was employed for collecting data."}, "[3]": {"system": "MIL-resistant L. tropica promastigotes", "assay": "microbe, parasite or virus in culture", "type": "cell-based, Leishmania tropica", "conditions": "for IC50: Leishmania tropica, 72 h, read-out: Anti-leishmanial activity against MIL-resistant L. tropica via MTT assay (IC50 = µM ± SEM)", "description": "as §1\n(§9) Biological activities evaluations\n1. MIL-resistant L. tropica assay protocol\nMiltefosine (hexadecylphosphocholine) (LEAP Chem), RPMI-1640 culture medium (Gibco), supplemented with 10% (v/v) heat-inactivated fetal bovine serum (FBS) (Gibco), 2 mM L-glutamine, 1% penicillin/ streptomycin (Sigma), DMSO (ALC labscan), and Trypan blue […]\nClinical Isolate and Generation of MIL resistant line:\nClinical isolate (L. tropica promastigote) from the endemic area of Islamabad (Pakistan) was ob tained from a patient. Promastigote cultures were maintained at 26 °C in RPMI medium, containing 15 % FBS and 1 % penicillin–streptomycin mixture. Clinical isolate was characterized by sequencing.\nGeneration of Miltefosine-unresponsive strain was carried under high MIL pressure by in vitro passage with stepwise increase in the MIL concentration. At each step, parasites were cultured, and passaged every 3–4 days at an initial concentration of 5x10^5 promastigotes/mL in order to achieve the stable growth, as compared to the wild type isolate. Growth rates were measured for resistant populations and compared with the WT strain. Parasites were counted at an initial concentration of 5 x 10^5 parasites/mL, and growth was measured daily using a Neubauer chamber until the population reached stationary phase. Fu rth ermore, the fluorescence microscopic investigations via DAPI stain were also carried out to supplement the study, and for […]\nPromastigote Growth Inhibition Assay\n(IC50) of resistant cell proliferation concerning untreated controls, the MTT assay was employed.\nThe promastigotes in their log phase were used in 96-well plates. 1 × 106 wild-type and resistant […]\npromastigotes were dispensed in 96-well plates, and incubated with tested compounds at a range concentration of 200–10 μM (stock concentration 1mg/mL and the working con centrations started from 250 µg/mL) at 27°C for 72 h. After incubation of 72 h, MTT dye (3-(4,5-dimethylthiazol-2-yl)-2,5-diphenyl-2H-tetrazolium bromide) was added and further incubate it for 3–4 h. Amphotericin B, pantamidine and miltefosine were used as th e positive control, untreated promastigotes were used as negative control moreover DMSO control was also added in the study as a stock solution of the compounds that were prepared in DMSO. All the experiments were performed in triplicates. After completion of the experiment the absorbance by Multiskan ascent plate reader at 452 nm and percent inhibition was calculated by the following […]\nCytotoxic concentration (%) = [100- (Absorbance of test)/ (Absorbance of solv ent con trol) ×100]"}, "[4]": {"system": "MIL-resistant L. tropica promastigotes", "assay": "Growth of MIL-resistant L. tropica line generated by step-wise selection (trypan blue count)", "type": "cell-based, Leishmania tropica", "conditions": "step-wise selection of MIL up to 196 µM, Fig. 9", "description": "L. tropica MIL-unresponsive/resistant parasites were developed and maintained using a step-wise selection of the drug MIL up to a concentration of 196 µM. No significant differences in growth patterns were observed between WT- and MIL-resistant strains.\nFigure 9 MIL-resistant L. tropica line generated by step-wise selection. 1 × 10^6 log-phase promastigotes were incubated in the presence of a range of drug concentrations. The surviving cells were quantified with trypan blue dye. Populations of parasites were grown in increasing concentrations of MIL, showing increased resistance to MIL. Bars of both resistant and WT parasites represent the more or less similar growth patterns.\nas §9\n1. MIL-resistant L. tropica assay protocol […]\nGeneration of Miltefosine-unresponsive strain was carried under high MIL pressure by in vitro passage with stepwise increase in the MIL concentration. […] Growth rates were measured for resistant populations and compared with the WT strain. Parasites were counted at an initial concentration of 5 x 10^5 parasites/mL, and growth was measured daily using a Neubauer chamber until the population reached stationary phase. Fu rth ermore, the fluorescence microscopic investigations via DAPI stain were also carried out to supplement the study, and for […]"}},
  "note": "Like-named read-outs stand apart in the source and are kept apart here.",
  "data": [
    {"molecule": "C[C@@H]1C[C@@H]([C@H](O)CC2CC(=O)NC(=O)C2)C(=O)[C@@H](C)C1", "note": "[cyclohexamide, reference compound]", "values": [
      {"measurement": "IC50 at 48 h", "setting": "in vitro", "value": "0.8 ± 0.14", "unit": "µM"}
    ]},
    {"molecule": "Nc1ccc(C(F)(F)F)cn1", "note": "[Cocrystal 1c, 2-amino-5-(trifluoromethyl)-pyridine]", "values": [
      {"measurement": "Cytotoxic activity 3T3 cell line (IC50 = µM ± SEM)", "setting": "[1]", "value": "Non-cytotoxic"},
      {"measurement": "Thermal stability up to (TGA/DSC)", "setting": "[2]", "value": 48.38, "unit": "°C"}
    ]},
    {"molecule": "Nc1ncccc1Br", "note": "[Cocrystal 1b, 2-amino-3-bromopyridine]", "values": [
      {"measurement": "Cytotoxic activity 3T3 cell line (IC50 = µM ± SEM)", "setting": "[1]", "value": "Non-cytotoxic"},
      {"measurement": "Thermal stability up to (TGA/DSC)", "setting": "[2]", "value": 67.29, "unit": "°C"}
    ]},
    {"molecule": "Nc1nc[nH]n1", "note": "[Cocrystal 1f, amitrole]", "values": [
      {"measurement": "Cytotoxic activity 3T3 cell line (IC50 = µM ± SEM)", "setting": "[1]; 3T3 normal mouse fibroblast, MTT, 48 h, 1-30 µM", "value": "Non-cytotoxic"},
      {"measurement": "IC50", "setting": "[3]", "value": "78 ± 0.96", "unit": "µM"},
      {"measurement": "Percent Inhibitions", "setting": "[3]; Table S1, concentration 46.95 (unit not given)", "value": 44.0, "unit": "%"},
      {"measurement": "Percent Inhibitions", "setting": "[3]; Table S1, concentration 93.88 (unit not given)", "value": 53.1, "unit": "%"},
      {"measurement": "Percent Inhibitions", "setting": "[3]; Table S1, concentration 187 (unit not given)", "value": 63.01, "unit": "%"}
    ]},
    {"molecule": "O=C(O)c1cc2ccccc2oc1=O", "note": "[Cocrystal 1a, Coumarin-3-carboxylic acid]", "values": [
      {"measurement": "Cytotoxic activity 3T3 cell line (IC50 = µM ± SEM)", "setting": "[1]", "value": "Non-cytotoxic"},
      {"measurement": "Thermal stability up to (TGA/DSC)", "setting": "[2]", "value": 191.78, "unit": "°C"}
    ]},
    {"molecule": "Nc1ccc(C(=O)O)cc1", "note": "[Cocrystal 1e, p-aminobenzoic acid]", "values": [
      {"measurement": "Cytotoxic activity 3T3 cell line (IC50 = µM ± SEM)", "setting": "[1]", "value": "Non-cytotoxic"}
    ]},
    {"molecule": "CCCCCCCCCCCCCCCCOP(=O)([O-])OCC[N+](C)(C)C", "note": "[miltefosine, hexadecylphosphocholine, reference compound]", "values": [
      {"measurement": "Inhibitory effect on cell proliferation of MIL-resistant L. tropica", "setting": "[4]", "value": "no inhibitory effects"},
      {"measurement": "IC50", "setting": "[3]", "value": "169.55 ± 0.078", "unit": "µM"}
    ]}
  ]
}
